In paper PMC6368403, “Identification of a bilirubin receptor that may mediate a component of cholestatic itch” (eLife, 2019):
“And” between values parts separate entries of the source, which are not always exact repeats. Equal entries are not always repeated.

Legend:
[1] = test system: mice; assay: Cheek injection model: scratching bouts and wiping; type: in vivo, mouse
Procedure: All applicable behavioral tests were performed and analysed with the experimenter blind to genotype. […] There were no significant differences in itch between male and female mice. […] On the day before the experiment, animals were placed in the test chamber for 30 min before being subjected to a series of three mock injections with 5 min break periods in between. On the day of the experiment, animals were first allowed to acclimatize to the test chamber for 10 min before injection. […] A bout of scratching was defined as a continuous scratching movement with either hindpaw directed at the area of the injection site. In the cheek injection model, a wipe was defined as a single forepaw stroking the site of the injection. Use of both forepaws on the face or cheek was considered as grooming behavior. […] For H1R block, 30 mg/kg of cetirizine HCl (pH 7.4) was given intraperitoneally thirty minutes prior to injection of bilirubin. Licking behavior was quantified in seconds and identified as the licking of the toes or footpad of the hind paw site of injection that was neither preceded nor followed by licking of any other portion of the body.

[2] = test system: murine peritoneal mast cells; assay: Ca2+ imaging of murine peritoneal mast cells; type: cell-based, mouse; settings: 100 µM bilirubin
Procedure: All cultured cells were maintained in DMEM supplemented with 10% FBS and 1% Penicillin/Streptomycin at 37°C, 5% CO2. All data included were generated from cells tested for mycoplasma and found to be negative. Cells were imaged in calcium imaging buffer (CIB; 10 mM HEPES, 1.2 mM NaHCO3, 130 mM NaCl, 3 mM KCl, 2.5 mM CaCl2, 0.6 mM MgCl2, 20 mM glucose, and 20 mM sucrose at pH 7.4 and 290–300 mOsm). To monitor changes in intracellular [Ca^2+] ([Ca^2+]i), cells were loaded with either Fura 2-AM (HEK293 cells) or Fluo 4-AM (DRG neurons and mast cells) for 30 min in the dark at 37°C in CIB just prior to imaging. With Fura 2-AM, emission at 510 nm was monitored from excitation at both 340 nm and 380 nm. With Fluo 4-AM, emission at 520 nm was monitored from excitation at 488 nm. Cells were identified as responding if the intracellular [Ca^2+] rose by either 50% compared to baseline or 50% compared to the [Ca^2+]i change assayed during addition of 50 mM KCl (neurons only). Damaged, detached, high-baseline, and motion-activated cells were excluded from analysis.
Mast cells were purified as described and plated onto glass coverslips coated with […] fibronectin and allowed to recover for 2 hr at 37°C. Cells were then loaded with Fluo-4 AM.
Adult male mice 8–12 weeks of age were sacrificed through CO2 inhalation. […]

[3] = molecular target: T1, MRGPRA1 (Mus musculus, UniProt Q91WW5); assay: [35S]GTPγS binding to MRGPRA1 membrane complexes; type: biochemical; settings: 50 μM bilirubin
T1 construct: expressed in transfected cells
T1 sequence (Q91WW5 1-304): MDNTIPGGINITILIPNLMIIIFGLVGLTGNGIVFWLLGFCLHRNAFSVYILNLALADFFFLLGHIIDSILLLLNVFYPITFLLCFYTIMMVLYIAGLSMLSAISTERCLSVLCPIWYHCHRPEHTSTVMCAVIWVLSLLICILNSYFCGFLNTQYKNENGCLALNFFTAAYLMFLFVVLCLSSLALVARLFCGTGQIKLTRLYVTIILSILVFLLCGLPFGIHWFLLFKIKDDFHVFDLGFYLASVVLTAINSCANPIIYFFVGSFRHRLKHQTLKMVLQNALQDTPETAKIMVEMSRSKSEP
Procedure: MRGPR activation was determined by measuring binding of a radiolabelled and non-hydrolyzable form of GTP, [^35S]guanosine-5’-(γ-thio)triphosphate ([^35S]GTPγS) as previously described ([Vasavda et al., 2017]). Briefly, 10 µg of crude membrane fractions were diluted into 175 µL assay buffer (50 mM HEPES, 5 mM MgCl2, 100 mM NaCl, 1 mM EDTA, 0.1% […]) supplemented with 10 µM GDP and incubated at room temperature for 5 min. Membranes were then incubated an additional 1 min in a final volume of 199 μL assay buffer supplemented with 50 μM bilirubin. Samples were then brought to 200 μL with the addition of 10 nM [^35S]GTPγS. Samples were incubated for 2 hr at 4°C with gentle agitation. The experiment was terminated by rapid filtration onto GF/B filters and washed three times with wash buffer (50 mM Tris-HCl, 5 mM MgCl2, and 50 mM NaCl at pH 7.4). Filters were then immersed in scintillation cocktail and counted. Nonspecific binding was determined by competition with 10 μM unlabelled GTPγS. GTPγS binding assays were performed as two independent experiments, in triplicate.

[4] = test system: small-diameter DRG sensory neurons; assay: Whole-cell current-clamp recording of DRG neurons; type: cell-based, mouse; settings: 50 µM bilirubin
Procedure: DRG neurons from all spinal levels were collected in cold DH10 media (90% Dulbecco’s modified Eagle’s medium (DMEM)/F-12, 10% FBS, penicillin (100 U/mL), and streptomycin (100 μg/mL)). DRGs were digested with a dispase (5 mg/ml)/collagenase type I (1 mg/ml) enzyme mixture at 37°C for 45 min. After trituration, cells were spun at 300 g and re-suspended in DH10 before being plated on glass coverslips coated with poly-D-lysine (0.5 mg/ml) and laminin (10 μg/ml, Invitrogen). DRGs were cultured with DH10 supplemented with 50 ng/mL NGF at 37°C.
DRG neurons from 3 to 5 week old mice were collected as described. After culture for 1–3 days, DRG neurons were transferred into a chamber with extracellular solution containing (in mM) 144 NaCl, 2.5 KCl, 2 CaCl2, 0.5 MgCl2, 5 HEPES, and 10 glucose, adjusted to pH 7.4 with NaOH. Whole-cell current-clamp recordings were performed at ~23°C using borosilicate capillary glass electrodes (Sutter Instrument) with a tip resistance of 3–5 MΩ. Internal solution contained (in mM) 80 K-acetate, 30 KCl, 40 HEPES, and 1 CaCl2, adjusted to pH 7.4 with potassium hydroxide (KOH). Small-diameter neurons with diameter 15–25 μm were chosen for patch-clamp. Data were acquired using an […] Amplifier and Digidata 1322A Digitizer with pClamp9.2 software package (Axon Instrument). […] Solutions containing 50 mM KCl were applied at the end of each cellular recording. Only neurons that could fire action potentials after adding KCl were regarded as healthy and appropriate for inclusion in data analysis.

C=CC1=C(C)/C(=C/c2[nH]c(Cc3[nH]c(/C=C4\NC(=O)C(C)=C4C=C)c(C)c3CCC(=O)O)c(CCC(=O)O)c2C)NC1=O [bilirubin, bilirubin IXα]
Wiping ([1]; 6 µg bilirubin into the cheek, 10 min): neither wiping | Scratching after cheek injection ([1]; cheek, 10 µl, 30 min): prompted dose-dependent scratching | Calcium response of peritoneal mast cells [2]: did not elicit a calcium response | GTP binding to MRGPRA1 membrane complexes [3]: increased GTP binding | [35S]GTPγS binding ([3]; MRGPRA1 membrane complexes (Fig 2K)): 197 and 184 and 159 | Small-diameter neurons in which action potentials were elicited ([4]; A1 KO DRG): 0 out of 60 | Small-diameter neurons in which action potentials were elicited ([4]; A1 KO DRG, listed as Bilirubin): 0 of 60 | Small-diameter neurons in which action potentials were elicited ([4]; WT DRG): 5 out of 50 | Small-diameter neurons in which action potentials were elicited ([4]; WT DRG, listed as Bilirubin): 5 of 50
